Measured values published in the supplement of paper PMC8558673.

System: Escherichia coli K12 ER1821
Experiment: log10 surviving fraction N/N0 (CFU/mL relative to untreated control) (log_unit); higher = more bacterial survival (less inactivation)
Procedure: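 E. coli K12 ER1821 (mid-exponential, washed in 250 mM sucrose) was exposed to antibiotic at MIC, 3x, 10x or 30x MIC, given a single 1-ms pulse of 0-20 kV/cm, and incubated with the antibiotic at room temperature for <=1 min, 60 min, 160 min or 24 h before dilution. Survivors were counted as CFU by drop plating after overnight growth at 37 C; the value is log10(N/N0) relative to the untreated control (no antibiotic, no pulse), with 3 replicates on different days.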

CC1(C)S[C@@H]2[C@H](NC(=O)[C@H](N)c3ccccc3)C(=O)N2[C@H]1C(=O)O [ampicillin]
log10 surviving fraction N/N0
Settings	antibiotic concentration 30 ug/mL	antibiotic concentration 90 ug/mL	antibiotic concentration 300 ug/mL	antibiotic concentration 900 ug/mL
electric pulse amplitude (kV/cm, single 1-ms pulse): 0, post-pulse incubation time: 24 h	-0.726	-1.73	-2.56	-2.68
electric pulse amplitude (kV/cm, single 1-ms pulse): 0, post-pulse incubation time: 60 min	-0.0801	-0.135	-1.02	-1.65
electric pulse amplitude (kV/cm, single 1-ms pulse): 0, post-pulse incubation time: 160 min	-0.551	-1.08	-1.68	-2.17
electric pulse amplitude (kV/cm, single 1-ms pulse): 0, post-pulse incubation time: <=1 min	-0.0839	-0.253	-0.17	-0.995
electric pulse amplitude (kV/cm, single 1-ms pulse): 5, post-pulse incubation time: 24 h	-1.01	-1.77	-2.86	-3.4
electric pulse amplitude (kV/cm, single 1-ms pulse): 5, post-pulse incubation time: 60 min	-0.411	-0.494	-1.56	-2.27
electric pulse amplitude (kV/cm, single 1-ms pulse): 5, post-pulse incubation time: 160 min	-0.803	-1.47	-2.27	-2.86
electric pulse amplitude (kV/cm, single 1-ms pulse): 5, post-pulse incubation time: <=1 min	-0.112	-0.305	-0.412	-1.08
electric pulse amplitude (kV/cm, single 1-ms pulse): 10, post-pulse incubation time: 24 h	-1.62	-2.91	-4.063	-4.5
electric pulse amplitude (kV/cm, single 1-ms pulse): 10, post-pulse incubation time: 60 min	-1.07	-1.59	-2.43	-2.817
electric pulse amplitude (kV/cm, single 1-ms pulse): 10, post-pulse incubation time: 160 min	-1.64	-2.22	-2.96	-3.31
electric pulse amplitude (kV/cm, single 1-ms pulse): 10, post-pulse incubation time: <=1 min	-0.474	-0.722	-1.11	-1.27
electric pulse amplitude (kV/cm, single 1-ms pulse): 15, post-pulse incubation time: 24 h	-2.66	-3.79	-4.45	-4.93
electric pulse amplitude (kV/cm, single 1-ms pulse): 15, post-pulse incubation time: 60 min	-1.88	-2.12	-2.9	-3.28
electric pulse amplitude (kV/cm, single 1-ms pulse): 15, post-pulse incubation time: 160 min	-2.2	-2.74	-3.3	-3.8
electric pulse amplitude (kV/cm, single 1-ms pulse): 15, post-pulse incubation time: <=1 min	-1.1	-1.29	-1.34	-1.99
electric pulse amplitude (kV/cm, single 1-ms pulse): 20, post-pulse incubation time: 24 h	-3.57	-4.39	-4.6	-4.96
electric pulse amplitude (kV/cm, single 1-ms pulse): 20, post-pulse incubation time: 60 min	-2.46	-2.71	-3.42	-3.64
electric pulse amplitude (kV/cm, single 1-ms pulse): 20, post-pulse incubation time: 160 min	-2.65	-3.23	-3.77	-4.02
electric pulse amplitude (kV/cm, single 1-ms pulse): 20, post-pulse incubation time: <=1 min	-1.34	-1.45	-1.85	-2.58

O=C(O)c1cn(C2CC2)c2cc(N3CCNCC3)c(F)cc2c1=O [ciprofloxacin]
log10 surviving fraction N/N0
Settings	antibiotic concentration 0.025 ug/mL	antibiotic concentration 0.075 ug/mL	antibiotic concentration 0.25 ug/mL	antibiotic concentration 0.75 ug/mL
electric pulse amplitude (kV/cm, single 1-ms pulse): 0, post-pulse incubation time: 24 h	-1.23	-2.32	-3.37	-2.76
electric pulse amplitude (kV/cm, single 1-ms pulse): 0, post-pulse incubation time: 60 min	-0.187	-0.389	-1.04	-1.39
electric pulse amplitude (kV/cm, single 1-ms pulse): 0, post-pulse incubation time: 160 min	-0.358	-0.825	-1.78	-2.04
electric pulse amplitude (kV/cm, single 1-ms pulse): 0, post-pulse incubation time: <=1 min	-0.0971	-0.218	-0.361	-0.897
electric pulse amplitude (kV/cm, single 1-ms pulse): 5, post-pulse incubation time: 24 h	-1.2	-2.36	-3.46	-2.88
electric pulse amplitude (kV/cm, single 1-ms pulse): 5, post-pulse incubation time: 60 min	-0.336	-0.615	-1.11	-1.47
electric pulse amplitude (kV/cm, single 1-ms pulse): 5, post-pulse incubation time: 160 min	-0.532	-0.993	-1.87	-2.11
electric pulse amplitude (kV/cm, single 1-ms pulse): 5, post-pulse incubation time: <=1 min	-0.217	-0.161	-0.535	-1.04
electric pulse amplitude (kV/cm, single 1-ms pulse): 10, post-pulse incubation time: 24 h	-1.78	-2.97	-3.49	-3.36
electric pulse amplitude (kV/cm, single 1-ms pulse): 10, post-pulse incubation time: 60 min	-0.593	-1.29	-1.69	-2.16
electric pulse amplitude (kV/cm, single 1-ms pulse): 10, post-pulse incubation time: 160 min	-1.04	-1.73	-2.52	-2.86
electric pulse amplitude (kV/cm, single 1-ms pulse): 10, post-pulse incubation time: <=1 min	-0.507	-0.67	-0.989	-1.83
electric pulse amplitude (kV/cm, single 1-ms pulse): 15, post-pulse incubation time: 24 h	-2.35	-3.37	-3.85	-4.09
electric pulse amplitude (kV/cm, single 1-ms pulse): 15, post-pulse incubation time: 60 min	-1.41	-1.81	-2.34	-2.77
electric pulse amplitude (kV/cm, single 1-ms pulse): 15, post-pulse incubation time: 160 min	-1.62	-2.31	-3.12	-3.27
electric pulse amplitude (kV/cm, single 1-ms pulse): 15, post-pulse incubation time: <=1 min	-1.25	-1.2	-1.55	-2.28
electric pulse amplitude (kV/cm, single 1-ms pulse): 20, post-pulse incubation time: 24 h	-3.05	-3.76	-4.37	-4.6
electric pulse amplitude (kV/cm, single 1-ms pulse): 20, post-pulse incubation time: 60 min	-1.77	-2.25	-2.75	-3.05
electric pulse amplitude (kV/cm, single 1-ms pulse): 20, post-pulse incubation time: 160 min	-1.92	-2.73	-3.31	-3.37
electric pulse amplitude (kV/cm, single 1-ms pulse): 20, post-pulse incubation time: <=1 min	-1.65	-1.77	-2.05	-2.91

CN(C)[C@@H]1C(O)=C(C(N)=O)C(=O)[C@@]2(O)C(O)=C3C(=O)c4c(O)cccc4[C@@](C)(O)[C@H]3C[C@@H]12 [tetracycline]
log10 surviving fraction N/N0
Settings	antibiotic concentration 2 ug/mL	antibiotic concentration 6 ug/mL	antibiotic concentration 20 ug/mL	antibiotic concentration 60 ug/mL
electric pulse amplitude (kV/cm, single 1-ms pulse): 0, post-pulse incubation time: 24 h	-0.417	-0.475	-0.573	-1.45
electric pulse amplitude (kV/cm, single 1-ms pulse): 0, post-pulse incubation time: 60 min	-0.108	-0.125	-0.116	-0.361
electric pulse amplitude (kV/cm, single 1-ms pulse): 0, post-pulse incubation time: 160 min	-0.0521	-0.172	-0.241	-0.461
electric pulse amplitude (kV/cm, single 1-ms pulse): 0, post-pulse incubation time: <=1 min	-0.0586	-0.2	-0.136	-0.26
electric pulse amplitude (kV/cm, single 1-ms pulse): 5, post-pulse incubation time: 24 h	-0.436	-0.518	-0.877	-2.42
electric pulse amplitude (kV/cm, single 1-ms pulse): 5, post-pulse incubation time: 60 min	-0.307	-0.307	-0.303	-0.636
electric pulse amplitude (kV/cm, single 1-ms pulse): 5, post-pulse incubation time: 160 min	-0.235	-0.282	-0.345	-0.84
electric pulse amplitude (kV/cm, single 1-ms pulse): 5, post-pulse incubation time: <=1 min	-0.0914	-0.264	-0.276	-0.618
electric pulse amplitude (kV/cm, single 1-ms pulse): 10, post-pulse incubation time: 24 h	-0.65	-0.762	-1.8	-3.46
electric pulse amplitude (kV/cm, single 1-ms pulse): 10, post-pulse incubation time: 60 min	-0.769	-0.825	-1.02	-1.72
electric pulse amplitude (kV/cm, single 1-ms pulse): 10, post-pulse incubation time: 160 min	-0.827	-0.925	-1.11	-2.1
electric pulse amplitude (kV/cm, single 1-ms pulse): 10, post-pulse incubation time: <=1 min	-0.389	-0.48	-0.656	-1.39
electric pulse amplitude (kV/cm, single 1-ms pulse): 15, post-pulse incubation time: 24 h	-1	-1.48	-2.97	-4.05
electric pulse amplitude (kV/cm, single 1-ms pulse): 15, post-pulse incubation time: 60 min	-1.45	-1.53	-1.82	-2.48
electric pulse amplitude (kV/cm, single 1-ms pulse): 15, post-pulse incubation time: 160 min	-1.46	-1.63	-1.99	-2.74
electric pulse amplitude (kV/cm, single 1-ms pulse): 15, post-pulse incubation time: <=1 min	-0.764	-0.971	-1.23	-2.06
electric pulse amplitude (kV/cm, single 1-ms pulse): 20, post-pulse incubation time: 24 h	-1.49	-1.98	-3.9	-4.78
electric pulse amplitude (kV/cm, single 1-ms pulse): 20, post-pulse incubation time: 60 min	-1.99	-2.02	-2.25	-3.13
electric pulse amplitude (kV/cm, single 1-ms pulse): 20, post-pulse incubation time: 160 min	-1.97	-2.19	-2.44	-3.57
electric pulse amplitude (kV/cm, single 1-ms pulse): 20, post-pulse incubation time: <=1 min	-1.26	-1.3	-1.57	-2.34
